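Dose response: 5 concentrations. Exposure: 48 h. Format: 96-well plates. Endpoint: linear interpolation; highest concentration if not reached. GI50 is the concentration that inhibits growth by half.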 Activity calls are given as the source filed them. Rule as the data show it: active = GI50 up to about 1.1 µM and inactive = higher.
Tests used:
Test in all cases: NCI tumour cell line growth inhibition, 48 h
[1] = tested on: 786-0
[2] = tested on: A549
[3] = tested on: ACHN
[4] = tested on: CAKI-1
[5] = tested on: CCRF-CEM
[6] = tested on: COLO 205
[7] = tested on: DU-145
[8] = tested on: EKVX
[9] = tested on: HCC 2998
[10] = tested on: HCT-116
[11] = tested on: HCT-15
[12] = tested on: HL-60
[13] = tested on: HOP-62
[14] = tested on: HOP-92
[15] = tested on: HT-29
[16] = tested on: Hs-578T
[17] = tested on: IGROV-1
[18] = tested on: K562
[19] = tested on: KM12
[20] = tested on: LOX IMVI
[21] = tested on: M14
[22] = tested on: MCF7
[23] = tested on: MDA-MB-231
[24] = tested on: MDA-MB-435
[25] = tested on: MDA-N
[26] = tested on: MOLT-4
[27] = tested on: Malme-3M
[28] = tested on: NCI-H226
[29] = tested on: NCI-H23
[30] = tested on: NCI-H460
[31] = tested on: NCI-H522
[32] = tested on: NCI/ADR-RES
[33] = tested on: OVCAR-3
[34] = tested on: OVCAR-5
[35] = tested on: OVCAR-8
[36] = tested on: PC-3
[37] = tested on: RPMI-8226
[38] = tested on: RXF 393
[39] = tested on: SF-268
[40] = tested on: SF-295
[41] = tested on: SF-539
[42] = tested on: SK-MEL-28
[43] = tested on: SK-MEL-2
[44] = tested on: SK-MEL-5
[45] = tested on: SK-OV-3
[46] = tested on: SN12C
[47] = tested on: SNB-19
[48] = tested on: SNB-75
[49] = tested on: SR
[50] = tested on: SW-620
[51] = tested on: T47D
[52] = tested on: TK-10
[53] = tested on: U-251
[54] = tested on: UACC-257
[55] = tested on: UACC-62
[56] = tested on: UO-31
[57] = tested on: BT-549
[58] = tested on: A498
[59] = tested on: OVCAR-4

In the case of `CCC(/C=C/c1ccccc1)=N\Nc1ccc(Cl)c(Cl)c1`, the GI50 [1] is reported as 34.4 µM (inactive), the GI50 [2] is reported as 39.7 µM (inactive) and the GI50 [3] is reported as 26.7 µM (inactive). For the same compound, the GI50 [4] was 34.9 µM (inactive), the GI50 [5] was 62.4 µM (inactive) and the GI50 [6] was 24.9 µM (inactive). The GI50 [7] was 89.1 µM (inactive), the GI50 [8] was 30.3 µM (inactive) and the GI50 [9] was 25.9 µM (inactive). The GI50 [10] was 23.7 µM (inactive), the GI50 [11] was 29.7 µM and the GI50 [12] was 27.8 µM (inactive). The GI50 [13] was 41.9 µM (inactive), the GI50 [14] was 13.6 µM (inactive) and the GI50 [15] was 35.8 µM (inactive). The GI50 [16] was 55.3 µM (inactive), the GI50 [17] was 5.14 µM (inactive) and the GI50 [18] was 32.9 µM (inactive). For the same compound, the GI50 [19] was 29.3 µM (inactive), the GI50 [20] was 22.8 µM (inactive) and the GI50 [21] was 56.4 µM (inactive). The GI50 [22] was 28.7 µM (inactive), the GI50 [23] was 17.8 µM (inactive) and the GI50 [24] was 33.3 µM (inactive). The GI50 [25] was 34.3 µM (inactive), the GI50 [26] was 31 µM (inactive) and the GI50 [27] was 32.1 µM (inactive). For the same compound, the GI50 [28] was 21.5 µM (inactive), the GI50 [29] was 30.9 µM (inactive) and the GI50 [30] was 33.3 µM (inactive). For the same compound, the GI50 [31] was 18.5 µM (inactive), the GI50 [32] was 31.9 µM (inactive) and the GI50 [33] was 25.7 µM (inactive). The GI50 [34] was 66.1 µM (inactive), the GI50 [35] was 16 µM (inactive) and the GI50 [36] was 55.6 µM (inactive). The GI50 [37] was 19.1 µM (inactive), the GI50 [38] was 26.7 µM (inactive) and the GI50 [39] was 36.3 µM (inactive). For the same compound, the GI50 [40] was 34.7 µM (inactive), the GI50 [41] was 25.8 µM (inactive) and the GI50 [42] was 48.1 µM (inactive). The GI50 [43] was 17.7 µM (inactive), the GI50 [44] was 13.8 µM (inactive) and the GI50 [45] was 27.4 µM (inactive). For the same compound, the GI50 [46] was 24.4 µM (inactive), the GI50 [47] was 52.1 µM (inactive) and the GI50 [48] was 41.3 µM (inactive). For the same compound, the GI50 [49] was 34.8 µM (inactive), the GI50 [50] was 33 µM (inactive) and the GI50 [51] was 49.9 µM (inactive). For the same compound, the GI50 [52] was 56.6 µM (inactive), the GI50 [53] was 3.22 µM (inactive) and the GI50 [54] was 31.6 µM (inactive). For the same compound, the GI50 [55] was 13.9 µM (inactive) and the GI50 [56] was 21.4 µM (inactive).
With `NC1CCC[C@@H](O)[C@H]1O` (stereo not given in full) the GI50 [57] was > 100 µM (inactive), the GI50 [5] was > 100 µM (inactive) and the GI50 [6] was > 100 µM (inactive). The GI50 [17] was > 100 µM (inactive), the GI50 [27] was > 100 µM (inactive) and the GI50 [28] was > 100 µM (inactive). For the same compound, the GI50 [31] was > 100 µM (inactive), the GI50 [41] was > 100 µM (inactive) and the GI50 [47] was > 100 µM (inactive). For the same compound, the GI50 [56] was 76.7 µM (inactive).
`O=C(c1ccccc1)N1C(=S)NC(=N/c2ccccc2)/C1=N\c1ccccc1` was tested, and the GI50 [1] was > 100 µM (inactive), the GI50 [58] was > 100 µM (inactive) and the GI50 [2] was > 100 µM (inactive). For the same compound, the GI50 [3] was > 100 µM (inactive), the GI50 [4] was > 100 µM (inactive) and the GI50 [5] was > 100 µM (inactive). The GI50 [6] was > 100 µM (inactive), the GI50 [7] was > 100 µM (inactive) and the GI50 [8] was > 100 µM (inactive). For the same compound, the GI50 [9] was > 100 µM (inactive), the GI50 [10] was > 100 µM (inactive) and the GI50 [11] was > 100 µM. The GI50 [12] was > 100 µM (inactive), the GI50 [13] was > 100 µM (inactive) and the GI50 [15] was > 100 µM (inactive). For the same compound, the GI50 [16] was > 100 µM (inactive), the GI50 [17] was > 100 µM (inactive) and the GI50 [18] was > 100 µM (inactive). For the same compound, the GI50 [19] was > 100 µM (inactive), the GI50 [20] was > 100 µM (inactive) and the GI50 [23] was > 100 µM (inactive). The GI50 [24] was > 100 µM (inactive), the GI50 [25] was > 100 µM (inactive) and the GI50 [26] was > 100 µM (inactive). For the same compound, the GI50 [27] was > 100 µM (inactive), the GI50 [28] was > 100 µM (inactive) and the GI50 [29] was > 100 µM (inactive). The GI50 [30] was > 100 µM (inactive), the GI50 [31] was > 100 µM (inactive) and the GI50 [32] was > 100 µM (inactive). For the same compound, the GI50 [59] was > 100 µM (inactive), the GI50 [34] was > 100 µM (inactive) and the GI50 [35] was > 100 µM (inactive). The GI50 [36] was > 100 µM (inactive), the GI50 [37] was > 100 µM (inactive) and the GI50 [38] was 33.9 µM (inactive). For the same compound, the GI50 [39] was > 100 µM (inactive), the GI50 [40] was > 100 µM (inactive) and the GI50 [41] was > 100 µM (inactive). The GI50 [42] was > 100 µM (inactive), the GI50 [43] was > 100 µM (inactive) and the GI50 [44] was > 100 µM (inactive). The GI50 [45] was > 100 µM (inactive), the GI50 [46] was > 100 µM (inactive) and the GI50 [47] was > 100 µM (inactive). The GI50 [48] was > 100 µM (inactive), the GI50 [49] was > 100 µM (inactive) and the GI50 [50] was > 100 µM (inactive). For the same compound, the GI50 [51] was > 100 µM (inactive), the GI50 [52] was > 100 µM (inactive) and the GI50 [53] was > 100 µM (inactive). For the same compound, the GI50 [54] was > 100 µM (inactive), the GI50 [55] was > 100 µM (inactive) and the GI50 [56] was > 100 µM (inactive).

From ChEMBL document CHEMBL1201862, “PubChem BioAssay data set” (2004)
